Test results published in US20230115945A1, “AMINOPYRIMIDINE COMPOUNDS” (TYRA BIOSCIENCES, INC., priority 2019, published 2023).

Assays:
FGFR1 = biological target: T1, FGFR1 (Homo sapiens, UniProt P11362); experiment: Kinase binding assay (Kd), FGFR1; details: 11-point 3-fold dilution, qPCR readout
T1 construct: made in house; host or cells: E. coli host derived from BL21, infected with T7 phage
In short: (§1)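 Competition binding: kinase-tagged T7 phage, ligand-coated streptavidin beads and an 11-point 3-fold compound series (0.9% DMSO final) were incubated 1 h at room temperature. Bead-bound kinase was eluted and quantified by qPCR. Kd was fitted to the Hill equation with slope fixed at −1.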

[1] = test system: UM-UC-14 cells (Bladder Cancer, FGFR3(S249C)); experiment: Cancer cell line cell viability assay, UM-UC-14; type: cell-based; details: UMUC14; 72 hours, Cell Titer-Glo 2.0; read-out: Cancer Cell Viability Assays UM-UC-14 (IC50 nM)
Source text: (§2) To detect the change of intracellular ATP by Cell Titer-Glo® and to evaluate the inhibitory effect of the compounds on cancer cell lines by determining the in vitro IC50 value of the compounds.
(§3) Cell Titer-Glo® 2.0 Luminescent cell viability assay reagent was purchased from Promega (Madison, Wis.). RT112/84, SNU-16, and KG-1 cell lines were purchased from American Type Culture Collection (Manassas, Va.). UM-UC-14 cell line was purchased from Sigma (St. Louis, Mo.). RT112/84, UM-UC-14, SNU-16, and KG-1 cells were cultured in RPMI1640 media supplemented with 10% fetal bovine serum. Cultures were maintained at 37° C. in a humidified atmosphere of 5% CO2 and 95% air.
(§4) Cell Viability Assay Procedure: Cells were plated in 96-well clear bottom/white plates (Corning #3903) at 10,000 cells/well in 100 μl of media, incubated overnight. The next day, test compound DMSO stock solutions were made at 10 mM and 2 μM final concentration. Compounds were then added to cells in a 9-dose, 10-fold dilution series starting at 30 μM with an HP 300e Digital Dispenser (each dose was applied in triplicate). DMSO was backfilled to each well up to 301 nL total volume of test compound+DMSO, and a total of 301 nL DMSO was added to a control/no test compound well in triplicate. The cells in cell culture plates were incubated with the compounds at 37° C. and 5% CO2 for 72 hours. Then 50 μl of Cell Titer Glo 2.0 reagent was added to each well of the cell culture plates. The contents were covered from light and mixed on an orbital shaker at room temperature for 10 min. Luminescence was recorded by a Synergy H1 Microplate Reader (Biotek, Winooski, Vt.). Cells were assessed as a percentage of DMSO only treated control cells. Curves were plotted and IC50 values were calculated using the GraphPad Prism 8 program based on a sigmoidal dose-response equation (4 parameter).

[2] = test system: KG-1 cells (Acute Myeloid Leukemia, FGFR1OP2-FGFR1 fusion); experiment: Cancer cell line cell viability assay, KG-1; type: cell-based; details: Homo sapiens, 72 hours, Cell Titer-Glo 2.0, read-out: Cancer Cell Viability Assays KG1 (IC50 nM)
Source text: as §2, §3, §4

FGFR2 = biological target: T2, FGFR2 (Homo sapiens, UniProt P21802); experiment: Kinase binding assay (Kd), FGFR2; details: 11-point 3-fold dilution, qPCR readout
T2 construct: made in house; host or cells: E. coli host derived from BL21, infected with T7 phage
T2 sequence (P21802 22-821): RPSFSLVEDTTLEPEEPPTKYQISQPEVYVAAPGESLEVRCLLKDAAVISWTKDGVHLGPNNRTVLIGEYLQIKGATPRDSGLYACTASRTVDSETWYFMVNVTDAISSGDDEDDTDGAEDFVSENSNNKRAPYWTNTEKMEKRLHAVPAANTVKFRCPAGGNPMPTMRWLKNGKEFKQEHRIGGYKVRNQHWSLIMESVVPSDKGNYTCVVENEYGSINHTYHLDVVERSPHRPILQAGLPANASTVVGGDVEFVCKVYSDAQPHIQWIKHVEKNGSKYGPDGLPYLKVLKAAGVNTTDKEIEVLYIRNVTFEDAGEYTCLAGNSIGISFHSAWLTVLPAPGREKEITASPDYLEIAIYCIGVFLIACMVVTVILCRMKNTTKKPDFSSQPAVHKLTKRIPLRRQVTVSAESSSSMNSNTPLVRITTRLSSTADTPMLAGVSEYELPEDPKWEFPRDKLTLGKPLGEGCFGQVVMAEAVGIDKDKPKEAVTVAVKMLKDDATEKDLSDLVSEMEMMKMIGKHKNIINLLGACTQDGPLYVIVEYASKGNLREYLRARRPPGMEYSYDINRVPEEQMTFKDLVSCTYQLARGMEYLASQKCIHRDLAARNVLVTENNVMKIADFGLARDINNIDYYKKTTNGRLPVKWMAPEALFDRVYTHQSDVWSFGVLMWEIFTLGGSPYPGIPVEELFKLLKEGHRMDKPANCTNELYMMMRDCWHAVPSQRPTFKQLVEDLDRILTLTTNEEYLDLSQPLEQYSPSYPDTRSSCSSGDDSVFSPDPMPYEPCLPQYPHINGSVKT
In short: as §1

FGFR1-BCR Ba/F3 cells = biological target: T3, FGFR1-BCR Ba/F3 cells (Homo sapiens, UniProt P11362); experiment: Ba/F3 cell viability assay, FGFR1; type: cell-based; details: FGFR1-BCR Ba/F3, 48 hours, Cell Titer-Glo 2.0; read-out: Ba/F3 Cells FGFR1 (IC50 nM)
T3 construct: Ba/F3 FGFR1; FGFR1-BCR; Advanced Cellular Dynamics, (Seattle, WA); fused on or other part: P11274 (Breakpoint cluster region protein)
T3 sequence (P11362 whole entry, change not shown, the tested form may be a part): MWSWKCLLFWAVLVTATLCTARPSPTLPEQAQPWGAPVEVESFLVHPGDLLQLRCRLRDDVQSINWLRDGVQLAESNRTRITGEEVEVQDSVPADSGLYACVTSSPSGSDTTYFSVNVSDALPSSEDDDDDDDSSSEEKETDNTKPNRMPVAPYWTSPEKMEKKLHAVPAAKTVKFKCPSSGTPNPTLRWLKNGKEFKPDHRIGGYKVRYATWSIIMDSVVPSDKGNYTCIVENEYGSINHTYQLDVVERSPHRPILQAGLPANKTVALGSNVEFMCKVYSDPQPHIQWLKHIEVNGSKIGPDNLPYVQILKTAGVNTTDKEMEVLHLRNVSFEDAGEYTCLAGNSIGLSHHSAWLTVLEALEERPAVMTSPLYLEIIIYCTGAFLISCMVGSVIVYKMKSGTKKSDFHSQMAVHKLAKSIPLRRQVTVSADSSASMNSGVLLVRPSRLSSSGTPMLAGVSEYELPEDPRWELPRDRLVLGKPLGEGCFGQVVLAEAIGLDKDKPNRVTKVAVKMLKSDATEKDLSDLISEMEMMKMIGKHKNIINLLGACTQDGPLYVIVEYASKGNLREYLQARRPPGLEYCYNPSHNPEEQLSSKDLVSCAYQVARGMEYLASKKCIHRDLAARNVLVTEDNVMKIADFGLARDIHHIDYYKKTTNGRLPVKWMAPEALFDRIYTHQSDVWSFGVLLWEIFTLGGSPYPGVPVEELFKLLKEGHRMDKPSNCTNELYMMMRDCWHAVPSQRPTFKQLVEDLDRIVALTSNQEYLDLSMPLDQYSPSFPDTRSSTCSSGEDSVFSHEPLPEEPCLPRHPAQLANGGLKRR
Source text: Experimental Purpose: Recombinant kinase fusions are transduced into parental Ba/F3, which becomes dependent upon this constitutive kinase activity for IL3-independent survival. Inhibition of kinase activity leads to cell death, which is monitored using CellTiter-Glo® 2.0 (Promega) which measures intracellular ATP concentration that in turn serves as a marker for viability. FGFR1-BCR Ba/F3 and FGFR3-BAIAP2L1 Ba/F3 were obtained from Advanced Cellular Dynamics (Seattle, Wash.)
Cell Viability Assay Procedure: Cell Titer-Glo® 2.0 Luminescent cell viability assay reagent was purchased from Promega (Madison, Wis.). FGFR1-BCR Ba/F3 and FGFR3-BAIAP2L1 Ba/F3 cells were cultured in RPMI1640 media supplemented with 10% fetal bovine serum. Cultures were maintained at 37° C. in a humidified atmosphere of 5% CO2 and 95% air.
as §4, with “Cells” for “Cell Viability Assay Procedure: Cells”, “48” for “72”

FGFR3 (V555M) = biological target: T4, FGFR3 (V555M) (Homo sapiens, UniProt P22607, V555M); experiment: Kinase binding assay (Kd), FGFR3 (V555M); details: 11-point 3-fold dilution, qPCR readout
T4 construct: made in house; host or cells: E. coli host derived from BL21, infected with T7 phage
T4 sequence (P22607 23-806 V555M): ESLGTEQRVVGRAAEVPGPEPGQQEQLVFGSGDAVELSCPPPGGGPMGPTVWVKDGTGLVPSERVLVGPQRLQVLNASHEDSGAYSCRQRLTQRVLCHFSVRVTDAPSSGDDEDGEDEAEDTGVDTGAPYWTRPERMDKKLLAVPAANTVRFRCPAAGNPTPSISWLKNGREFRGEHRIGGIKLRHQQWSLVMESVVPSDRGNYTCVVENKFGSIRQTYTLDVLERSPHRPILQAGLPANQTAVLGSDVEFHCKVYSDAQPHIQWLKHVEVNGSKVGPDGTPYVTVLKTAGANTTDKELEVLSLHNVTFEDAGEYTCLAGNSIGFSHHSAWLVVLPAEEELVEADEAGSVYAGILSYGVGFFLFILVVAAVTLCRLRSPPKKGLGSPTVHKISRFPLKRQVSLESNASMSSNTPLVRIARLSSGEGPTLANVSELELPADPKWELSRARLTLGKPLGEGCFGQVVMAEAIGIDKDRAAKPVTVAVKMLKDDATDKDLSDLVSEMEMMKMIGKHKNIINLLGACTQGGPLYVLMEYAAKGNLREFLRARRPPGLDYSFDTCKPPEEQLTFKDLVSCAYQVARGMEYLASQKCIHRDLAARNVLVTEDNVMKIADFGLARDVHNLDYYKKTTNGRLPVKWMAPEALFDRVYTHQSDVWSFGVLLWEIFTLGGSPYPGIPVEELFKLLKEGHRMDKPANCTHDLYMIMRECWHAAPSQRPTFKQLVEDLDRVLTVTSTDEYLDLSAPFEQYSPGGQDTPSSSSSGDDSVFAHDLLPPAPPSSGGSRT
In short: as §1

T1 sequence (P11362 22-822): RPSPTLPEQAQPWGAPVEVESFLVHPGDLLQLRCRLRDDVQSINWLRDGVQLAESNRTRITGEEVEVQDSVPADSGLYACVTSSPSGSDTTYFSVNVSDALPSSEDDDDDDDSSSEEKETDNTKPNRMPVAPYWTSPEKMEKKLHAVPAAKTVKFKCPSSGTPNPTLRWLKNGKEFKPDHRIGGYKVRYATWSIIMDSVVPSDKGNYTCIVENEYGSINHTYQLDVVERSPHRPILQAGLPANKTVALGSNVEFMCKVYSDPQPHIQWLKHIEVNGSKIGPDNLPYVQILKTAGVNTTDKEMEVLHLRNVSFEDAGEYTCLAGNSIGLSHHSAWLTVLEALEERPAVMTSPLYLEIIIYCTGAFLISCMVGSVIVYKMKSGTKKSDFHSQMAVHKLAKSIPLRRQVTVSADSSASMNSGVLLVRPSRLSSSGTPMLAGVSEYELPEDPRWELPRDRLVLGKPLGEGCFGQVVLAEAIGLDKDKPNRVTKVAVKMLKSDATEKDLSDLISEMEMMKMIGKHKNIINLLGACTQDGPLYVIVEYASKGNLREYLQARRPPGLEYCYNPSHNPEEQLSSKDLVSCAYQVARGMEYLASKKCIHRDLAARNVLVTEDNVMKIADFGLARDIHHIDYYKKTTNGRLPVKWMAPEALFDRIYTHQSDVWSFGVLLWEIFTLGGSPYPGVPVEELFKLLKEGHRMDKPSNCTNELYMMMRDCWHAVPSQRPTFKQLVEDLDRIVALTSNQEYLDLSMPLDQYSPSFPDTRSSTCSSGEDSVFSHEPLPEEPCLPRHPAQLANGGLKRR

Row | Compound | Kd (FGFR1) [nM] | IC50 [1] [nM] | IC50 [2] [nM] | Kd (FGFR2) [nM] | Kd (FGFR3 (V555M)) [nM] | GI50 (FGFR1-BCR Ba/F3 cells) [nM]
1 | C=CC(=O)Nc1ccc2c(c1)c(C)cn2-c1nc(Nc2ccc(N=S(C)(C)=O)c(F)c2)ncc1Cl [Example 60, N-[1-[5-Chloro-2-[4-[[dimethyl(oxo)-λ^6-sulfanylidene]amino]-3-fluoro-anilino]pyrimidin-4-yl]-3-methyl-indol-5-yl]prop-2-enamide] | 14 | 6 | 4 | 3.2 | 1.7 | 2
2 | C=CC(=O)Nc1ccc2c(c1)c(C)cn2-c1nc(Nc2ccc(N=S(C)(C)=O)cc2)ncc1Cl [Example 61, N-[1-[5-Chloro-2-[4-[[dimethyl(oxo)-λ^6-sulfanylidene]amino]anilino]pyrimidin-4-yl]-3-methyl-indol-5-yl]prop-2-enamide] | 21 | 12 | 6 | 6 | 2 | 2
3 | C=CC(=O)Nc1ccc2c(c1)c(C)cn2-c1nc(Nc2ccc(N=S(C)(C)=O)c(F)c2)ncc1C#N [Example 62, N-[1-[5-Cyano-2-[4-[[dimethyl(oxo)-λ^6-sulfanylidene]amino]-3-fluoro-anilino]pyrimidin-4-yl]-3-methyl-indol-5-yl]prop-2-enamide] | 79 | 152 | 17 | 16 | 11 | 9
4 | C=CC(=O)Nc1ccc2c(ccn2-c2nc(Nc3ccc(N=S(C)(C)=O)cc3)ncc2Cl)c1 [Example 66, N-[1-[5-chloro-2-[4-[[dimethyl(oxo)-λ^6-sulfanylidene]amino]anilino]-pyrimidin-4-yl]indol-5-yl]prop-2-enamide] | 61 | 34 | 20 | 37 | 5.3 | 6
5 | C=CC(=O)Nc1ccc2c(ccn2-c2nc(Nc3ccc(S(C)(=N)=O)cc3)ncc2Cl)c1 (stereo not drawn) [Example 70, N-[1-[5-Chloro-2-[4-(methylsulfonimidoyl)anilino]-pyrimidin-4-yl]indol-5-yl]prop-2-enamide] | 230 | 34 | 9 | 25 | 9.2 | 8
6 | C=CC(=O)Nc1ccc2c(-c3nc(Nc4ccc(N=S(C)(C)=O)cc4)ncc3Cl)cn(C)c2c1 [Example 92, N-[3-[5-chloro-2-[4-[[dimethyl(oxo)-λ^6-sulfanylidene]amino]anilino]pyrimidin-4-yl]-1-methyl-indol-6-yl]prop-2-enamide] | 63 | 10 | 5 | 13 | 3 | 1

Stronger by Kd (FGFR1), values ahead:

Row | Kd (FGFR1) [nM] | IC50 [1] [nM] | IC50 [2] [nM] | Kd (FGFR2) [nM] | Kd (FGFR3 (V555M)) [nM] | Compound | GI50 (FGFR1-BCR Ba/F3 cells) [nM]
7 | 10 | 3 | 1 | 3 | 1 | C=CC(=O)Nc1ccc2c(c1)c(C)cn2-c1nc(Nc2ccc(N=S(C)(C)=O)c(F)c2)ncc1C [Example 63, N-[1-[2-[4-[[dimethyl(oxo)-λ^6-sulfanylidene]amino]-3-fluoro-anilino]-5-methyl-pyrimidin-4-yl]-3-methyl-indol-5-yl]prop-2-enamide] | 1
8 | 5 | 3 | 1 | 4 | 1 | C=CC(=O)Nc1ccc2c(c1)c(C)cn2-c1nc(Nc2ccc(N=S(C)(C)=O)c(OC)c2)ncc1Cl [Example 64, N-[1-[5-Chloro-2-[4-[[dimethyl(oxo)-λ^6-sulfanylidene]amino]-3-methoxy-anilino]pyrimidin-4-yl]-3-methyl-indol-5-yl]prop-2-enamide] | 3
